Measurements: patent publication US20150274719A1, “AMINO-SUBSTITUTED IMIDAZO[1,2-A]PYRIDINECARBOXAMIDES AND THEIR USE” (BAYER PHARMA AKTIENGESELLSCHAFT, priority 2012, published 2015)

Target: T1, recombinant guanylate cyclase reporter cell line (Rattus norvegicus, UniProt P19686+P20595)
T1 construct: expressed in transfected cells; host or cells: recombinant reporter cell line
T1 sequence (P19686 1-690): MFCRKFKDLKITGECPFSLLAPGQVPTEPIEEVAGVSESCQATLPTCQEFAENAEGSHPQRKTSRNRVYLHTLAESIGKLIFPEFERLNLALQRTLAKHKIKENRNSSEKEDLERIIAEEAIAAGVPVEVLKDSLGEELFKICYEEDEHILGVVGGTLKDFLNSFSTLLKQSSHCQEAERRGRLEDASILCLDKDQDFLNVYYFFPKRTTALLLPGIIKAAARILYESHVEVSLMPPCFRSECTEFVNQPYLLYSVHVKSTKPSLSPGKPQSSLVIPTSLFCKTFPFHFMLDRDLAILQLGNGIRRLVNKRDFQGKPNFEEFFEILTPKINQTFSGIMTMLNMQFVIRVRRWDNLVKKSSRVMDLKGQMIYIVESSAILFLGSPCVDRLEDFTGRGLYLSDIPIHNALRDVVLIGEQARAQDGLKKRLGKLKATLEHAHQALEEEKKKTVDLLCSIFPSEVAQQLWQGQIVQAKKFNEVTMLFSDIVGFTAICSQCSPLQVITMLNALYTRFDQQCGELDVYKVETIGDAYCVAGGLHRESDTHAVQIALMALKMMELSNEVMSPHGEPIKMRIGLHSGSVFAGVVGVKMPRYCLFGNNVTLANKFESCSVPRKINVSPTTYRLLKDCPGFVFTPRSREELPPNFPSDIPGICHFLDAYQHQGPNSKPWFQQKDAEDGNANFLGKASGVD
T1 sequence (P20595 1-619): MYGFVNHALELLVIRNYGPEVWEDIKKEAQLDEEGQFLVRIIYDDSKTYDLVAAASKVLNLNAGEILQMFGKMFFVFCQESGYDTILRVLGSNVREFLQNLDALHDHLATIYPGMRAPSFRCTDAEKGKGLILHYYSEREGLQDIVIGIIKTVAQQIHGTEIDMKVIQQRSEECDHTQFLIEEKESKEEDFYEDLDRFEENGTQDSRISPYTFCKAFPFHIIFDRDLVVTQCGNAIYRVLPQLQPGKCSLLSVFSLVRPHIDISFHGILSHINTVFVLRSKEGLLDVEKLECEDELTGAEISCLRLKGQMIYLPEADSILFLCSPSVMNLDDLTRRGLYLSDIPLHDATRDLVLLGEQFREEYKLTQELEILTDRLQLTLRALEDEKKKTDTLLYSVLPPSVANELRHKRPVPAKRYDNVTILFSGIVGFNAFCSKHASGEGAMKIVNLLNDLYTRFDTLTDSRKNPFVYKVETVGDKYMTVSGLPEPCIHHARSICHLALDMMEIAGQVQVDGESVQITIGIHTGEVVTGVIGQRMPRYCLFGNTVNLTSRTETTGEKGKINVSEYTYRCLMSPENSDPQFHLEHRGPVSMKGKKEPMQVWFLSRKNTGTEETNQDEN
Test: Action on recombinant guanylate cyclase reporter cell line
Assay type: cell-based
Settings: in some cases mean values from individual determinations
In short: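 Reported value is the minimal effective concentration (MEC), in some cases a mean of single runs, taken from a recombinant rat guanylate cyclase reporter cell line.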

First: Cc1nc2c(OCc3c(F)cccc3F)cccn2c1C(=O)NC(CN)c1ccc(F)cc1 (racemic) [Example 9, rac-N-[2-Amino-1-(4-fluorophenyl)ethyl]-8-[(2,6-difluorobenzyl)oxy]-2-methylimidazo[1,2-a]-pyridine-3-carboxamide]
Second: Cc1nc2c(OCc3cccc(F)c3F)cccn2c1C(=O)NC(CN)c1ccc(F)c(F)c1 (stereo not drawn) [Example 99]
The “MEC (minimal effective concentration)” value of the first is 3.3-fold lower: 0.30 µM for the first, 1.00 µM for the second.

First: Cc1cc(OCc2c(F)cccc2F)c2nc(C)c(C(=O)N[C@@H]3CC[C@](C)(N)C3(C)C)n2c1 [Example 324, N-[(1R,3S)-3-amino-2,2,3-trimethylcyclopentyl]-8-[(2,6-difluorobenzyl)oxy]-2,6-dimethylimidazo[1,2-a]pyridine-3-carboxamide]
Second: Cc1cc(OCc2c(F)cccc2F)c2nc(C)c(C(=O)NC3CCC3N)n2c1 (single isomer, unassigned; enantiomer a) [Example 328, ent-N-(2-aminocyclobutyl)-8-[(2,6-difluorobenzyl)oxy]-2,6-dimethylimidazo[1,2-a]pyridine-3-carboxamide (Enantiomer A)]
The “MEC (minimal effective concentration)” value of the first is 3-fold lower: 1.00 µM for the first, 3.00 µM for the second.

`Cc1nc2c(OCc3c(F)cccc3F)cccn2c1C(=O)NC1CNc2ccccc2C1` (single isomer, unassigned; ent-8) [Example 81, ent-8-[(2,6-Difluorobenzyl)oxy]-2-methyl-N-(1,2,3,4-tetrahydroquinolin-3-yl)imidazo[1,2-a]-pyridine-3-carboxamide] and `Cc1nc2c(OCc3c(F)cccc3F)cccn2c1C(=O)NCC1CCc2ccccc2N1` (racemic) [Example 250, rac-8-[(2,6-Difluorobenzyl)oxy]-2-methyl-N-(1,2,3,4-tetrahydroquinolin-2-ylmethyl)imidazo[1,2-a]pyridine-3-carboxamide] are the same in “MEC (minimal effective concentration)” value: 1.00 µM for the first, 1.00 µM for the second.

First: Cc1nc2c(OCc3c(F)cccc3F)cccn2c1C(=O)NCCN(C)C [Example 86, 8-[(2,6-difluorobenzyl)oxy]-N-[2-(dimethyl-amino)ethyl]-2-methylimidazo[1,2-a]pyridine-3-carboxamide]
Second: Cc1nc2c(OCc3c(F)cccc3F)cccn2c1C(=O)NCCN(CC(F)F)C1CC1 [Example 146, N-{2-[cyclopropyl(2,2-difluoroethyl)amino]ethyl}-8-[(2,6-difluorobenzyl)oxy]-2-methylimidazo[1,2-a]-pyridine-3-carboxamide]
The “MEC (minimal effective concentration)” value of the first is 2-fold higher: 2.00 µM for the first, 1.00 µM for the second.

Going from `Cc1nc2c(OCc3c(F)cccc3F)cc(Cl)cn2c1C(=O)NCC(C)(N)C(F)(F)F` (racemic) [Example 236, rac-N-(2-Amino-3,3,3-trifluoro-2-methylpropyl)-6-chloro-8-[(2,6-difluorobenzyl)oxy]-2-methyl-imidazo[1,2-a]pyridine-3-carboxamide] to `COCCNCCNC(=O)c1c(C)nc2c(OCc3c(F)cccc3F)cc(Cl)cn12` [Example 153, 6-chloro-8-[(2,6-difluorobenzyl)oxy]-N-{2-[(2-methoxyethyl)amino]ethyl}-2-methylimidazo[1,2-a]pyridine-3-carboxamide], the “MEC (minimal effective concentration)” value rises from 0.30 µM to 1.00 µM (3.3-fold).

`Cc1nc2c(OCc3c(F)cccc3F)cccn2c1C(=O)NC1CNc2ccccc2C1` (racemic) [Example 75, rac-8-[(2,6-Difluorobenzyl)oxy]-2-methyl-N-(1,2,3,4-tetrahydroquinolin-3-yl)imidazo[1,2-a]-pyridine-3-carboxamide] and `Cc1nc2c(OCc3c(F)cccc3F)cccn2c1C(=O)NC12CNCCC1C2` (single isomer, unassigned) [Example 184, ent-N-(3-Azabicyclo[4.1.0]hept-1-yl)-8-[(2,6-difluorobenzyl)oxy]-2-methylimidazo[1,2-a]pyridine-3-carboxamide] are the same in “MEC (minimal effective concentration)” value: 1.00 µM for the first, 1.00 µM for the second.

`Cc1cc(OCc2c(F)cccc2F)c2nc(C)c(C(=O)NCC(C)N3CCOCC3)n2c1` (single isomer, unassigned; ent-8) [Example 187, ent-8-[(2,6-Difluorobenzyl)oxy]-2,6-dimethyl-N-[2-(morpholin-4-yl)propyl]imidazo[1,2-a]-pyridine-3-carboxamide] and `Cc1cc(OCc2c(F)cccc2F)c2nc(C)c(C(=O)NCC(N)c3ccc(C)o3)n2c1` (racemic) [Example 369, rac-N-[2-amino-2-(5-methyl-2-furyl)ethyl]-8-[(2,6-difluorobenzyl)oxy]-2,6-dimethylimidazo[1,2-a]pyridine-3-carboxamide] are the same in “MEC (minimal effective concentration)” value: 0.30 µM for the first, 0.30 µM for the second.

First: CC(=O)Nc1cccc(C(CN)NC(=O)c2c(C)nc3c(OCc4c(F)cccc4F)cc(C)cn23)c1 (racemic) [Example 396, rac-N-[1-(3-acetamidophenyl)-2-aminoethyl]-8-[(2,6-difluorobenzyl)oxy]-2,6-dimethylimidazo[1,2-a]pyridine-3-carboxamide]
Second: C=Cc1cccc(C(CN)NC(=O)c2c(C)nc3c(OCc4c(F)cccc4F)cc(C)cn23)c1 (racemic) [Example 385, rac-N-[2-amino-1-(3-ethenylphenyl)ethyl]-8-[(2,6-difluorobenzyl)oxy]-2,6-dimethylimidazo[1,2-a]pyridine-3-carboxamide]
The “MEC (minimal effective concentration)” value of the first is 3-fold higher: 3.00 µM for the first, 1.00 µM for the second.

Going from `CCC(C)(N)CNC(=O)c1c(C)nc2c(OCc3c(F)ccc(C4CC4)c3F)cc(C)cn12` (stereo not drawn) [Example 363, ent-N-(2-amino-2-methylbutyl)-8-[(3-cyclopropyl-2,6-difluorobenzyl)oxy]-2,6-dimethylimidazo[1,2-a]pyridine-3-carboxamide] to `CCC(C)(N)CNC(=O)c1c(C)nc2c(OCc3c(F)ccc(OC)c3F)cc(C)cn12` (stereo not drawn) [Example 360, ent-N-(2-amino-2-methylbutyl)-8-[(2,6-difluoro-3-methoxybenzyl)oxy]-2,6-dimethylimidazo[1,2-a]pyridine-3-carboxamide], the “MEC (minimal effective concentration)” value falls from 3.00 µM to 1.00 µM (3-fold).

`Cc1nc2c(OCc3c(F)cccc3F)cccn2c1C(=O)NC(CN)CCCC(F)(F)F` (single isomer, unassigned; enantiomer b) [Example 6, ent-N-(1-Amino-6,6,6-trifluorohexan-2-yl)-8-[(2,6-difluorobenzyl)oxy]-2-methylimidazo[1,2-a]-pyridine-3-carboxamide (Enantiomer B)] and `Cc1nc2c(OCc3c(F)cccc3F)cccn2c1C(=O)NC(C)[C@H](C)N` (single isomer, unassigned) [Example 174] are within 1.5-fold of each other in “MEC (minimal effective concentration)” value: 0.23 µM for the first, 0.30 µM for the second.

Going from `Cc1nc2c(OCc3c(F)cccc3F)cccn2c1C(=O)NCCN1CCOCC1` [Example 89, 8-[(2,6-difluorobenzyl)oxy]-2-methyl-N-[2-(morpholin-4-yl)ethyl]imidazo[1,2-a]pyridine-3-carboxamide] to `Cc1cc(OCc2c(F)cccc2F)c2nc(C)c(C(=O)NC3CNCC3F)n2c1` (racemic) [Example 347, rac-8-[(2,6-Difluorobenzyl)oxy]-N-(4-fluoropyrrolidin-3-yl)-2,6-dimethylimidazo[1,2-a]pyridine-3-carboxamide], the “MEC (minimal effective concentration)” value rises from 0.65 µM to 1.00 µM (1.5-fold).

First: Cc1cc(OCc2c(F)cccc2F)c2nc(C)c(C(=O)NCC(C)(N)Cc3ccccn3)n2c1 (racemic) [Example 297, rac-N-[2-amino-2-methyl-3-(pyridin-2-yl)propyl]-8-[(2,6-difluorobenzyl)oxy]-2,6-dimethylimidazo[1,2-a]pyridine-3-carboxamide]
Second: NCC(NC(=O)c1c(C2CC2)nc2c(OCc3c(F)cccc3F)cccn12)c1ccc(F)c(F)c1 (stereo not drawn) [Example 54, ent-N-[2-amino-1-(3,4-difluorophenyl)ethyl]-2-cyclopropyl-8-[(2,6-difluorobenzyl)oxy]-imidazo[1,2-a]pyridine-3-carboxamide]
The “MEC (minimal effective concentration)” value of the first is 10-fold lower: 0.10 µM for the first, 1.00 µM for the second.
